# Laboratory results reported in patent publication US20100310665A1, “BACTERIOSTATIC OR BACTERIOCIDAL COMPOSITIONS AND METHODS” (Revalesio Corporation, priority 2007, published 2010).
# Test system: Methicillin-Resistant Staphylococcus Aureus (MRSA)
# Experiment: MRSA bacteriocidal effects, plates with no growth
# Format: cell-based
# Set-up: concentration or dose not given beside the values
# Details: fluids in combination with oxacillin
smiles,measurement,setting,value
"Cc1onc(-c2ccccc2)c1C(=O)N[C@@H]1C(=O)N2[C@@H]1SC(C)(C)[C@@H]2C(=O)O [Drug, oxacillin]",Percentage of plates with no growth at indicated time,0 min,16.67%
same,Percentage of plates with no growth at indicated time,30 min,0.00%
same,Percentage of plates with no growth at indicated time,120 min,0.00%
same,Percentage of plates with no growth at indicated time,240 min,0.00%
same,Percentage of plates with no growth at indicated time,480 min,0.00%
same,Percentage of plates with no growth at indicated time,1080 min,0.00%
same,Percentage of plates with no growth at indicated time,1440 min,0.00%
